Test results from US20210106567A1, “COMPOSITIONS AND METHODS FOR INHIBITING CARP-1 BINDING TO NEMO” (United States Government As Represented By The Department …, priority 2019, published 2021).
Ends that are not written are not given here.

Experiments:
[1] = test system: parental and chemo-resistant human and murine TNBC cells and parental renal cancer cells; experiment: Cytokine ELISA of culture media, chemotherapy-induced secretion; type: cell-based; conditions: single agent
[2] = test system: mammospheres derived from human TNBC PDX tumors; experiment: Three-dimensional mammosphere assay (MTT); type: cell-based; conditions: Homo sapiens; 5 μM for 48 h
Method: Three-dimensional Mammosphere Assays: The PDX tumor cells were dissociated from the tumor fragments, and cultured for 2-dimensional and mammosphere studies in vitro (Cheriyan et al. (2016) Oncotarget 7, 73370-73388). Briefly, the cells were washed twice in 1×PBS, trypsinized, and pelleted at 200×g at room temperature. Cells were then re-suspended in 5 ml of mammosphere media (DMEM/F12 containing 2 mM L-glutamine, 100 U/ml penicillin, 100 U/ml streptomycin, 1×B27 supplement, 20 ng/ml recombinant human epidermal growth factor (EGF; Sigma), 10 ng/ml recombinant human basic fibroblast growth factor (bFGF; R&D Systems). Approximately 5000 viable cells per ml was then seeded in an ultra-low adherent 60 mm plate and incubated at 37° C. and 5% CO2 for two weeks without disturbing the plates. After the mammospheres formed, fresh media with or without Adriamycin (5 μM), SNI-1 (2.5 or 5.0 μM), or a combination of these agents was added and the cells incubated for additional 48 h at 37° C. and 5% CO2. The mammospheres in the untreated and treated plates were photographed, and the cells were then dissociated to determine their viabilities by the MTT assay (Cheriyan et al. (2016) Oncotarget 7, 73370-73388).

[3] = test system: cleaved RIPK1; experiment: Western blot for RIPK1 cleavage; type: cell-based
Text: (§1) The cells were lysed to prepare protein extracts.

[4] = test system: MDR1; experiment: Levels of drug efflux pump MDR1; type: cell-based, human; conditions: MDA-MB-468 cells
Text: Of note is that SNI-1 in combination with Adriamycin provoked a greater inhibition of tumor growth when compared with the tumor growth inhibition noted in animals treated with either agent alone. […] Since TNBCs and many other cancers are often known to express drug efflux pumps that contribute to lower efficacy of drugs in clinic and development of drug-resistant tumors, it is likely that the presence/expression of these drug efflux pumps function in part to interfere with a robust anti-tumor response to a combination of SNI-1 and Adriamycin.

[5] = test system: p65/RelA activation and phosphorylation of NEMO; experiment: Western blot for canonical NF-κB activation; type: cell-based; conditions: single agent, Western blot
Text: as §1

[6] = test system: 4T1 TNBC tumors; experiment: 4T1 TNBC syngeneic tumor efficacy study in Balb/c mice; type: in vivo, mouse; conditions: ELISA of sera
Method: Establishment of TNBC cell-derived xenografts in Syngeneic mice: Generation of 4T1 TNBC cell-derived sub-cutaneous xenografts in Balb/c mice were performed (Cheriyan et al. (2016) Oncotarget 7, 73370-73388; and Cheriyan et al. (2017) Oncotarget 8, 104928-104945). BALB/cAnNCr, 6-8-weeks old, female mice were purchased from Charles River Laboratories (Horsham, Pa.). Following suitable acclimation of animals, 1×10^6 4T1 TNBC cells were re-suspended in 200 μl of sterile saline, and implanted in the flanks using a 27-gauge needle. Tumors were allowed to grow to 500-1000 mg (˜10 days), and the aseptically harvested, minced into 3-4 mm^3 (30 mg) fragments and transplanted SC into naïve recipient mice using a standard 12 gauge trocar to serially maintain the tumor in vivo. For efficacy studies, tumors serially maintained in vivo were aseptically harvested and minced into 3-4 mm^3 (30 mg) fragments, then bilaterally transplanted subcutaneously along the flanks using a standard 12 gauge trocar. […] For the efficacy studies, SNI-1 was formulated in 8% DMSO (v/v) and 8% Cremophor (v/v) in cell grade water, pH4 as diluent.
Clinical grade ADR stock (2 mg/mL) was diluted to the appropriate concentration with cell grade water; pH4 and clinical grade CIS (1 mg/ml) diluted with USP 0.9% saline; pH6). Mice were monitored daily for changes in condition and body weight. Tumors were measured three times weekly by caliper and tumor volume (mg) was calculated using the following formula: (A×B2)/2 where A and B are the tumor length and width (in mm), respectively. […] Efficacy was also assessed quantitatively using tumor growth delay (T−C) defined as the difference between the median time (in days) required for the treatment group tumors (T) to reach 1000 mg and the median time (days) for the control group tumors to reach the same volume. Post last treatment, tumor tissue and samples from various organs (spleen, liver, kidney, heart, bone, and lungs) were collected. Additionally, the whole blood samples were obtained from a representative tumor-bearing mouse from each group via terminal cardiac puncture. Immuno-histochemical analyses of the tumor and tissue samples were performed for expression of activated RelA (serine 536 phosphorylated p65), total RelA, cleaved caspase-3, and CARP-1 proteins. The levels of pro-inflammatory cytokines in the sera were analyzed by sandwich ELISA assays following methods detailed herein (Cheriyan et al. (2016) Oncotarget 7, 73370-73388; and Cheriyan et al. (2017) Oncotarget 8, 104928-104945).

[7] = test system: MDA-MB-231 TNBC cells; conditions: Wen et al. (2018); read-out: IC50, growth inhibition; cited from earlier work
[8] = test system: MDA-MB-468 TNBC cells; experiment: MTT cell viability, SNI-1 analogs; type: cell-based, human; conditions: 24 h
Method: FIGS. 22A-B show SNI-1 analogs enhance Adriamycin inhibition of TNBC cell growth. FIGS. 22A-B show cells treated with indicated dose of noted agent for 24 h, and their viabilities determined by MTT assay. Columns represent means of three independent experiments; bars, SE.
MDA-MB-468 TNBC cells were next treated with each of the analog in vitro as a single agent or in combination with Adriamycin in vitro.

[9] = target: T1, Flag-CARP-1 (546-580) binding with Biotin-NEMO (221-261) (Homo sapiens, UniProt Q8IX12); experiment: AlphaLISA assay of CARP-1/NEMO peptide binding (HTS format); conditions: read-out: IC50, inhibition of binding of CARP-1 (546-580) with NEMO (221-261) peptide
T1 construct: Flag-tagged CARP-1 (546-580); purchased Peptides America, Fairfax, Va; host or cells: chemical synthesis
T1 sequence (Q8IX12 546-580 limits assumed): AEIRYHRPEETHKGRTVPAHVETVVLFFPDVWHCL
Text: The predicted kinetics of interaction of CARP-1 (551-600; SEQ ID NO: 5) and NEMO (221-261; SEQ ID NO: 2) epitopes was further validated by utilizing respective, chemically synthesized peptides to determine their in-solution binding by SPR technology (Sekhar et al. (2019) Cancers (Basel) 11). […] On the collective basis of the data in FIG. 1, and biophysical and SPR data above, in vitro binding assays were developed utilizing chemically synthesized CARP-1 and NEMO peptides. In the first instance, CARP-1 (551-580; SEQ ID NO: 6) and NEMO (221-261; SEQ ID NO: 2) peptides were used to carry out buffer optimization and DMSO tolerance of the assay. […] Presence of 0.01% tween minimizes non-specific binding and generates higher reproducibility as noted by smaller error bars in FIG. 15A. […]
The AlphaLISA assay for high throughput screening: For screening of a library of chemical compounds, an […] assay was developed and optimized for use in 384-well format (SAMDI Tech, Chicago, Ill.). […] The assay signal (Fluorescence) was measured at 680 nm excitation and 615 nm emission wavelengths to determine assay robustness and DMSO tolerance. […] The plates were read on a Pherastar FS plate reader. […] Those wells were further analyzed to investigate the 8 compounds individually in duplicate.

[10] = target: T2, NEMO (221-260) peptide (Homo sapiens, UniProt Q9Y6K9); experiment: Surface Plasmon Resonance kinetics of CARP-1 peptide binding with NEMO peptide; conditions: SPR
T2 construct: host or cells: chemical synthesis
T2 sequence (Q9Y6K9 222-261, one chain of several): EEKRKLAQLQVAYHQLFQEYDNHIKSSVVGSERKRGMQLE
Method: Next, kinetics of CARP-1 binding with NEMO were determined by Surface Plasmon Resonance (SPR) Technology (Profacgen, Shirley, N.Y.). Briefly, CARP-1 (551-580) peptide (Amino terminal-[…]-Carboxyl terminal; SEQ ID NO: 6) was dissolved in water, and various concentrations of CARP-1 Peptide were manually printed onto the bare gold-coated (thickness 47 nm) PlexArray Nanocapture Sensor Chip (Plexera Bioscience, Seattle, Wash., US) at 40% humidity. Each concentration was printed in replicate, and each spot contained 0.2 μL of sample solution. The chip was incubated in 80% humidity at 4° C. for overnight, and rinsed with 10×PBST for 10 min, 1×PBST for 10 min, and deionized water twice for 10 min. The chip was then blocked with 5% (w/v) non-fat milk in water overnight, and washed with 10×PBST for 10 min, 1×PBST for 10 min, and deionized water twice for 10 min before being dried under a stream of nitrogen prior to use. The binding reactions with NEMO (221-260; SEQ ID NO: 7) peptide (Amino terminal-[…]-Carboxyl terminal; SEQ ID NO: 7) were performed in PBST buffer (0.01M phosphate buffered saline (0.138 M NaCl; 0.0027 M KCl), 0.05% Tween-20, pH 7.4). SPRi measurements were performed with PlexAray HT (Plexera Bioscience, Seattle, Wash., US). […] The signal changes after binding and washing (in AU) were recorded as the assay value. Selected protein-grafted regions in the SPR images were analyzed, and the average reflectivity variations of the chosen areas were plotted as a function of time. Real-time binding signals were recorded and analyzed by Data Analysis Module (DAM, Plexera Bioscience, Seattle, Wash., US). […]
Association and dissociation rate constants were calculated by numerical integration and global fitting to a 1:1 interaction model and the equation: dRU(t)/dt=kaC(R^max−RU(t))−kdRU(t), where RU(t) is the response at time t, Rmax is the maximum response, C is the concentration of analyte in solution, ka is the association rate constant, kd is the dissociation rate constant, and RU (0)=0.

O=c1[nH]cc(F)c(=O)[nH]1 [5-FU]
levels of TNFα, IL-8, and IL-1β in the media [1]: robust increase

COc1cccc2c1C(=O)c1c(O)c3c(c(O)c1C2=O)C[C@@](O)(C(=O)CO)C[C@@H]3O[C@H]1C[C@H](N)[C@H](O)[C@H](C)O1 [Adriamycin]
levels of TNFα, IL-8, and IL-1β in the media [1]: robust increase
inhibition at 5 µM [2]: ~30%
expression of cleaved RIPK1 [3]: induced expression of cleaved RIPK1
levels of drug efflux pump MDR1 [4]: moderate increase
p65/RelA activation and phosphorylation of NEMO [5]: robust increase
serum levels of TNFα and IL-1β [6]: robustly stimulated
IC50 [7]: ~3000 nM

Cc1ccc(-n2cnnc2SCC(=O)c2ccc(O)c(O)c2)cc1 [GL-208]
loss of cell viability in combination with Adriamycin versus Adriamycin alone [8]: minimal reduction in cell viabilities

Cc1ccc(-n2cnnc2[S+]([O-])CC(=O)c2ccc(O)c(O)c2)cc1 (centres unmarked) [GL-209]
loss of cell viability in combination with Adriamycin versus Adriamycin alone [8]: loss of cell viabilities that were greater

Cc1ccc(-n2cnnc2S(=O)(=O)CC(=O)c2ccc(O)c(O)c2)cc1 [GL-210]
loss of cell viability in combination with Adriamycin versus Adriamycin alone [8]: minimal reduction in cell viabilities

Cc1ccc(-n2ccnc2SCC(=O)c2ccc(O)c(O)c2)cc1 [GL-211]
loss of cell viability in combination with Adriamycin versus Adriamycin alone [8]: minimal reduction in cell viabilities

Cc1ccc(-n2ccnc2[S+]([O-])CC(=O)c2ccc(O)c(O)c2)cc1 (centres unmarked) [GL-212]
loss of cell viability in combination with Adriamycin versus Adriamycin alone [8]: moderate reduction in cell viabilities

Cc1ccc(-n2ccnc2S(=O)(=O)CC(=O)c2ccc(O)c(O)c2)cc1 [GL-213]
loss of cell viability in combination with Adriamycin versus Adriamycin alone [8]: loss of cell viabilities that were greater

O=C(CSc1nc2ccccc2s1)c1ccc(O)c(O)c1 [GL-215]
loss of cell viability in combination with Adriamycin versus Adriamycin alone [8]: moderate reduction in cell viabilities

O=C(CSc1nc(-c2ccccc2)cs1)c1ccc(O)c(O)c1 [GL-216]
loss of cell viability in combination with Adriamycin versus Adriamycin alone [8]: loss of cell viabilities that were greater

COc1ccc(S(=O)(=O)Nc2ccccc2C(=O)NCCc2ccccc2)cc1 [SNI-2, 2-{((4-methoxyphenyl)sulfonyl)amino}-N-(2-phenylethyl)benzamide]
IC50 [9]: ~25000 nM

HRPEETHKGRTVPAHVETVVLFFPDVWHCL [CARP-1 (551-580)]
Kd ([10]; chemically synthesized peptides, read-out: equilibrium dissociation constant (KD Value)): 102 nM
kon ([10]; read-out: Ka (association rate constant)): 2070 M⁻¹ s⁻¹
koff ([10]; read-out: Kd (dissociation rate constant)): 0.000212 s⁻¹
